Test results published in patent US20060211744A1, “3-Pyridinecarboxamide reduces nerve degeneration” (Children's Medical Center, priority 2005, published 2006).

Columns and labels:
Type in all cases: cell-based
[1] = tested on: cultured DRG neurons (transected axons); assay: Axon degeneration after transection of axons of cultured DRG neurons (Wallerian degeneration)
Protocol: As a first step in examining the role of NAD in Wallerian degeneration, we used an ultra-sensitive high-performance liquid chromatography (HPLC) method (Micheli and Sestini, 1997) to measure the concentration of NAD and its derivatives in degenerating axons. To do this, the acidic lysates were prepared from axonal segments collected at different time points after transecting the axons from cultured dorsal root ganglia (DRG) and resolved by reverse-phase chromatography. 2 hr after axotomy, when the transected axons were still morphologically indistinguishable from their uncut controls, NAD levels began to decrease. This NAD decrease continued over the course of degeneration, reaching about 50% at 4 hr post-axotomy, to almost undetectable levels by 6 hr after axotomy, when early morphological signs of degeneration began to develop. […] By a similar approach of alkaline extraction (Micheli and Sestini, 1997), it has been difficult for us to detect NADH in the axonal extracts, presumably due to the low abundance of NADH and the high NAD/NADH ratio reported in mammalian cells (Zhang et al., 2002, Kasischke et al., 2004, Kannurpatti et al., 2004).
To definitively determine whether preventing the local decrease in NAD levels could mediate axon protection, we employed soma-free axonal segments that have been separated from their soma as models to examine the protective effects of different pharmacological treatments. It has been shown that exogenously provided NAD, when directly added to the culture medium of DRG neurons, can be transported across the axonal membrane (Araki et al., 2004). Thus, we first examined the protective effects of different concentrations of NAD added to the culture before or after axon transection and removal of ganglia.
To further assess the local and nuclear contribution to such an NAD-dependent protection, we compared the protective effects of NAD provided at different time points. […] In this respect, our results are inconsistent with those shown by Araki et al (2004), possibly due to the different concentrations of NAD used in our studies (1-20 mM) and by Araki et al (0.1 to 1 mM).
We next attempted to explore the possible mechanisms underlying this local NAD-dependent axon protection. […] A possible explanation for this discrepancy between Araki et al (2004) and our results is the different approaches used to block Sirt1 activity. […] It is known that […], other sirturins exist and some of these proteins are localized in the cytoplasmic compartment (Onyango et al., 2002; North et al., 2003).

[2] = tested on: superior sympathetic ganglia (SCGs) and other neuronal types expressing mutant Nmnat1; assay: Axon degeneration induced by over-expression of mutant Nmnat1 in cultured neurons; conditions: no axotomy
Text: We next examined whether decreasing neuronal NAD levels is sufficient to induce axon degeneration in intact neurons. By sequence alignment, a conserved (T/H)XGH motif has been identified in the N-terminus of all Nmnat proteins from different species (Saridakis et al., 2001). This motif likely represents a critical active site, as a mutant enzyme with a point mutation at the last amino acid (H to A) loses its catalytic activity but retains its ability to bind the nicotinamide mononucleotide (NMN) substrate (Saridakis et al., 2001). Thus, we made a mutant Nmnat1 in which the critical histidine residue at amino acid 24 in this active site motif was substituted with alanine. Since most of the NAD in mammalian cells, except for liver and kidney cells, is synthesized by recycling degraded NAD products such as nicotinamide via the salvage pathway (Shibata et al., 1991, Rongvaux et al., 2003), over-expressing this mutant Nmnat1 would be expected to sequester the limited substrates, thus decreasing cellular NAD levels. […] As a result, neurons expressing this mutant Nmnat1 developed signs of axon degeneration in the absence of axotomy, concomitant with decreases in neuronal NAD and ATP levels.
In addition, a caspase inhibitor Z-DEVD-fink also had no effect on the axon degeneration induced by this mutant Nmnat1 expression.

[3] = tested on: cultured hippocampal neurons; assay: Synaptic loss and process degeneration in cultured hippocampal neurons (dominant-negative Nmnat1)
Text: We next attempted to examine whether decreasing NAD levels can induce similar “dying-back” axon degeneration in neurons with established synaptic connections. Such experiments might allow us to assess whether the degenerative processes in axons and other neuronal structures, including synaptic structures and dendritic processes, share similar mechanisms. To do this, we introduced both wild type and dominant negative Nmnat1 into cultured hippocampal neurons at 20 days in vitro (DIV 20), when their synaptic connections have formed and matured (Brewer et al. 1993), and examined their effects on axons as well as dendrites and synapses. As a conventional approach to visualize these neuronal structures, we also co-infected the hippocampal neurons with HSV expressing YFP. […] Moreover, neuronal NAD levels declined from 24-48 hr post-infection with viruses expressing dominant-negative Nmnat1 but not wild type Nmnat1 or YFP. Thus, we decided to focus our analysis on the first 60 hours post-infection.
To monitor changes in synaptic structures, we co-infected DIV20 neurons with HSV expressing YFP and wild type or the mutant Nmnat1, and quantified both spine density and the length and branching of axons and dendrites. As the density of dendritic spines has been considered a reliable indicator for synapse number (reviewed by Hering and Sheng, 2001), we performed high-resolution YFP imaging in neurons co-expressing YFP and Nmnat1 proteins at the indicated time points post-infection to measure the spine densities in these co-infected neurons. Dendrite length and branching patterns were analyzed using Sholl's method of regularly spaced concentric circles centered on the neuronal soma (Sholl, 1953). […]
In the experiments described above, we also performed immunostaining with antibodies against the presynaptic marker bassoon, and found a decrease of positively-stained synaptic structures. However, due to the complex morphology of the axons that makes it extremely difficult to quantify the axonal length in DIV20 hippocampal neurons, we […]. […]

In the case of `NC(=O)c1ccc[n+]([C@@H]2O[C@H](COP(=O)([O-])OP(=O)(O)OC[C@H]3O[C@@H](n4cnc5c(N)ncnc54)[C@H](O)[C@@H]3O)[C@@H](O)[C@H]2O)c1` [NAD, nicotinamide adenine dinucleotide], the “concentrations resulting in significant protective effects on axon degeneration” value ([1]; added to culture medium of DRG neurons) is reported as 1 to 20 mM.

`COC(=O)CC[C@H](NC(=O)[C@H](CC(=O)OC)NC(=O)OCc1ccccc1)C(=O)N[C@H](C(=O)N[C@@H](CC(=O)OC)C(=O)CF)C(C)C` [Z-DEVD-fink] was tested, and the “axon degeneration induced by mutant Nmnat1 expression” value [2] was “no effect”.

In the case of `Oc1ccc(C=Cc2cc(O)cc(O)c2)cc1` [resveratrol], the “extent of axon degeneration” value ([1]; a range of concentrations) is reported as “failed to observe any significant change” and the “changes (spine density, dendrites) induced by dominant-negative Nmnat1” value ([3]; DIV20 hippocampal neurons) is reported as “did not affect the changes”.

For `CC(NC(=O)c1ccccc1/N=C/c1c(O)ccc2ccccc12)c1ccccc1` (stereo not drawn) [sirtinol], the “attenuation of the protective effect of Nmnat1 or NAD” value ([1]; sirturin inhibitors, nicotinamide at 50 μM) was “did not attenuate the protective effect” and the “dendritic spine quantity or structure, compound alone” value ([3]; from 50 to 100 μM, up to 72 hr) was “did not induce significant changes”.
